Reference: ChEMBL document CHEMBL5338801, “Carbohydrate Strengthens the Immunotherapeutic Effect of Small-Molecule PD-L1 Inhibitors” (J Med Chem, 2023)
Calls of active or inactive are those of the source. The rule behind the calls is not given here.

Legend:
[1] = target: T1, Programmed cell death protein 1/Programmed cell death 1 ligand 1 (Homo sapiens, UniProt Q9NZQ7); experiment: Inhibition of PD-1/His-tagged PD-L1 (unknown origin) protein-protein interaction incubated for 90 mins by AlphaLISA; format: protein-complex assay
[2] = Toxicity in BALB/c mouse implanted with mouse CT26 cells assessed as weight loss at 25 mg/kg, ip qd administered for 10 days measured every 2 days for 12 days relative to control; format: organism-based; conditions: in vivo, 288 h, time 12 day
[3] = tested on: CT26; experiment: Antitumor activity against mouse CT26 cells implanted Balb/c mouse assessed as increase CD4+ cell count at 25 mg/kg, ip qd administered for 10 days measured every 2 days for 12 days (reference value: 13.74 +/- 0.51%); format: functional; conditions: time 12 day
[4] = Half life in CD-1 mouse at 5 mg/kg, ip measured upto 24 hrs by UPLC analysis; format: ADME, organism-based; conditions: in vivo
[5] = Upregulation of IFN-gamma secretion in human CD4+ve Th cells cocultured with DC cells incubated for 120 hrs by ELISA; format: functional
[6] = tested on: Jurkat; experiment: Cytotoxicity against human Jurkat T cells assessed as cell growth inhibition upto 30 uM incubated for 48 hrs by MTT assay; format: toxicity, cell-based
[7] = Cmax in CD-1 mouse at 5 mg/kg, iv measured upto 24 hrs by UPLC analysis; format: ADME, organism-based; design: dose 5 mg/kg, time < 24 hrs, route iv; conditions: in vivo
[8] = Tmax in CD-1 mouse at 5 mg/kg, ip measured upto 24 hrs by UPLC analysis; format: ADME, organism-based; conditions: in vivo
[9] = AUClast in CD-1 mouse at 5 mg/kg, ip measured upto 24 hrs by UPLC analysis; format: ADME, organism-based; design: dose 5 mg/kg, time < 24 hrs, route ip; conditions: in vivo
[10] = Toxicity in C57BL/6 mouse implanted with mouse B16-F10 cells assessed as weight loss at 5 mg/kg, it qd administered for 6 days measured after 7 days relative to control; format: organism-based; conditions: in vivo, other, 168 h, time 7 day
[11] = Tmax in CD-1 mouse at 5 mg/kg, iv measured upto 24 hrs by UPLC analysis; format: ADME, organism-based; conditions: in vivo
[12] = tested on: B16-F10; experiment: Antitumor activity against mouse B16-F10 cells implanted in C57BL/6 mouse assessed as tumor growth inhibition at 25 mg/kg, ip qd for 6 days and measured once a day for 7 days relative to control; format: functional; conditions: B16-F10, 168 h, time 7 day, read-out: TGI
[13] = Toxicity in C57BL/6 mouse implanted with mouse B16-F10 cells assessed as weight loss at 100 mg/kg, po qd administered for 6 days measured after 7 days relative to control; format: organism-based; conditions: in vivo, 168 h, time 7 day
[14] = tested on: CT26; experiment: Antitumor activity against mouse CT26 cells xenografted Balb/c mouse assessed as granzyme B+ CD8+ T cell count at 25 mg/kg, ip qd administered for 10 days measured every 2 days for 12 days (reference value: 4.31 +/- 2.35%); format: functional; conditions: time 12 day
[15] = Partition coefficient, logD of compound in 1-octanol and phosphate buffer at pH 7.4 incubated for 1 hr under shaking condition by HPLC analysis; format: physicochemical; conditions: 1-octanol/phosphate buffer, pH 7.4
[16] = tested on: B16-F10; experiment: Antitumor activity against mouse B16-F10 cells implanted in C57BL/6 mouse assessed as tumor growth inhibition at 5 mg/kg, it qd for 6 days and measured once a day for 7 days relative to control; format: functional; conditions: B16-F10, 168 h, time 7 day, read-out: TGI
[17] = Toxicity in C57BL/6 mouse implanted with mouse B16-F10 cells assessed as weight loss at 25 mg/kg, ip qd administered for 6 days measured after 7 days relative to control; format: organism-based; conditions: in vivo, 168 h, time 7 day
[18] = Observed MRT infinity in CD-1 mouse at 5 mg/kg, iv measured upto 24 hrs by UPLC analysis; format: ADME, organism-based; conditions: in vivo
[19] = Half life in CD-1 mouse at 5 mg/kg, iv measured upto 24 hrs by UPLC analysis; format: ADME, organism-based; conditions: in vivo
[20] = tested on: CT26; experiment: Antitumor activity against mouse CT26 cells implanted in Balb/c mouse assessed as tumor growth inhibition at 25 mg/kg, ip qd administered for 10 days measured every 2 days for 12 days relative to control; format: functional; conditions: CT26, 288 h, time 12 day, read-out: TGI
[21] = Observed AUC infinity in CD-1 mouse at 5 mg/kg, ip measured upto 24 hrs by UPLC analysis; format: ADME, organism-based; design: dose 5 mg/kg, time < 24 hrs, route ip; conditions: in vivo
[22] = Cmax in CD-1 mouse at 5 mg/kg, ip measured upto 24 hrs by UPLC analysis; format: ADME, organism-based; design: dose 5 mg/kg, time < 24 hrs, route ip; conditions: in vivo
[23] = tested on: CT26; experiment: Antitumor activity against mouse CT26 cells xenografted Balb/c mouse assessed as increase CD3+ CD8+ T cell count at 25 mg/kg, ip qd administered for 10 days measured every 2 days for 12 days (reference value: 5.77 +/- 0.32%); format: functional; conditions: time 12 day
[24] = tested on: B16-F10; experiment: Antitumor activity against mouse B16-F10 cells implanted in C57BL/6 mouse assessed as tumor growth inhibition at 100 mg/kg, po qd for 6 days and measured once a day for 7 days relative to control; format: functional; conditions: B16-F10, 168 h, time 7 day, read-out: TGI
[25] = Observed MRT infinity in CD-1 mouse at 5 mg/kg, ip measured upto 24 hrs by UPLC analysis; format: ADME, organism-based; conditions: in vivo
[26] = target: T1, Programmed cell death protein 1/Programmed cell death 1 ligand 1; experiment: Inhibition of human PD-1/PD-L1 interaction overexpressed in human HEK293T cells by flow cytometry analysis; format: cell-based
[27] = Observed AUC infinity in CD-1 mouse at 5 mg/kg, iv measured upto 24 hrs by UPLC analysis; format: ADME, organism-based; design: dose 5 mg/kg, time < 24 hrs, route iv; conditions: in vivo
[28] = AUClast in CD-1 mouse at 5 mg/kg, iv measured upto 24 hrs by UPLC analysis; format: ADME, organism-based; design: dose 5 mg/kg, time < 24 hrs, route iv; conditions: in vivo
[29] = tested on: RKO; experiment: Downregulation of human PD-L1 expressed in RKO cells incubated for 48 hrs; format: functional, cell-based
[30] = Half life in CD-1 mouse at 10 mg/kg, ig measured upto 24 hrs by UPLC analysis; format: ADME, organism-based; conditions: in vivo, po
[31] = tested on: CT26; experiment: Downregulation of mouse PD-L1 expressed in CT26 cells incubated for 48 hrs; format: functional, cell-based
[32] = Tmax in CD-1 mouse at 10 mg/kg, ig measured upto 24 hrs by UPLC analysis; format: ADME, organism-based; conditions: in vivo, po
[33] = Observed clearance in CD-1 mouse at 5 mg/kg, iv measured upto 24 hrs by UPLC analysis; format: ADME, organism-based; conditions: in vivo
[34] = target: T1, Programmed cell death protein 1/Programmed cell death 1 ligand 1; experiment: Inhibition of PD-1/PD-L1 (unknown origin) interaction incubated for 15 mins by HTRF assay; format: protein-complex assay
[35] = Observed MRT infinity in CD-1 mouse at 10 mg/kg, ig measured upto 24 hrs by UPLC analysis; format: ADME, organism-based; conditions: in vivo, po
[36] = Volume of distribution at steady state in CD-1 mouse at 5 mg/kg, iv measured upto 24 hrs by UPLC analysis; format: ADME, organism-based; conditions: in vivo, read-out: Vdss
[37] = Cmax in CD-1 mouse at 10 mg/kg, ig measured upto 24 hrs by UPLC analysis; format: ADME, organism-based; design: dose 10 mg/kg, time < 24 hrs, route ig; conditions: in vivo, po
[38] = tested on: RKO; experiment: Cytotoxicity against human RKO cells over expressing human PD-L1 at 50 uM; format: toxicity, cell-based
[39] = tested on: CT26; experiment: Downregulation of STING ER exit protein in Balb/c mouse tumor implanted with mouse CT26 cells by LC/MS analysis; format: functional, cell-based
[40] = tested on: CT26; experiment: Downregulation of mitogen-activated protein kinase 15 in mouse CT26 cells implanted in Balb/c mouse tumor by LC/MS analysis; format: functional, cell-based
[41] = tested on: CT26; experiment: Downregulation of BET1 homologue in Balb/c mouse tumor implanted with mouse CT26 cells by LC/MS analysis; format: functional, cell-based
[42] = target: Programmed cell death 1 ligand 1 (Homo sapiens) (UniProt Q9NZQ7); experiment: Inhibition of human PD-L1 overexpressed in RKO cells assessed as reduction in membrane activity cocultured for 48 hrs by flow cytometry analysis; format: cell-based
[43] = tested on: CT26; experiment: Downregulation of immediate early response 3-interacting protein 1 in Balb/c mouse tumor implanted with mouse CT26 cells tumor by LC/MS analysis; format: functional, cell-based
[44] = target: Programmed cell death 1 ligand 1 (Homo sapiens) (UniProt Q9NZQ7); experiment: Induction of human PD-L1 degradation expressed in MC38 cells at 1 to 10 uM cocultured for 72 hrs by Western blotting analysis; format: cell-based; conditions: dose 1-10 µM
[45] = AUClast in CD-1 mouse at 10 mg/kg, ig measured upto 24 hrs by UPLC analysis; format: ADME, organism-based; design: dose 10 mg/kg, time < 24 hrs, route ig; conditions: in vivo, po

T1 sequence (Q15116 whole entry): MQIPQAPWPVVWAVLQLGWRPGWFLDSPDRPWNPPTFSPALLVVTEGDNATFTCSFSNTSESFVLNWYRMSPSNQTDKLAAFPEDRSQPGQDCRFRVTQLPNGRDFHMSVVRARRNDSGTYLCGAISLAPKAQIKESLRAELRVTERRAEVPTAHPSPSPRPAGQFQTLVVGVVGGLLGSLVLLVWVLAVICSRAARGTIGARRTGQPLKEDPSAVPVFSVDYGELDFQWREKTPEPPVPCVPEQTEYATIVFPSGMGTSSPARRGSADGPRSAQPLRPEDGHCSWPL
T1 sequence (Q9NZQ7 whole entry): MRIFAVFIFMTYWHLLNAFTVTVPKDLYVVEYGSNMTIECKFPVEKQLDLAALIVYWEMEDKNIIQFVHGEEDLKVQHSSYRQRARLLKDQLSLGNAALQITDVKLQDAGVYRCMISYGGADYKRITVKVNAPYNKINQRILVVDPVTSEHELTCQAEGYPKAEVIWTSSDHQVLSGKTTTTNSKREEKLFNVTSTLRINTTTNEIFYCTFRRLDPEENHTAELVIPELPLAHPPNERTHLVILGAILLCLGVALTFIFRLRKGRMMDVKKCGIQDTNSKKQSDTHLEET
Sequence of Programmed cell death 1 ligand 1 (Homo sapiens) (Q9NZQ7 whole entry): as above

| logD at 1 h [15] | MRT inf [18] [h] | half-life [19] [h] | AUC(0-t) at 24 h [28] [ng·h/mL] | SMILES | Activity [2] | Activity [3] [%] | fold change (FC) [5] | Activity [6] | Activity [10] | inhibition in vivo at 25 mg/kg [12] [%] | Activity [13] | Activity [14] [%] | inhibition in vivo at 5 mg/kg [16] [%] | Activity [17] | inhibition in vivo at 25 mg/kg [20] [%] | Activity [23] [%] | inhibition in vivo at 100 mg/kg [24] [%] | IC50 [26] [nM] | other results |
| --- | --- | --- | --- | --- | --- | --- | --- | --- | --- | --- | --- | --- | --- | --- | --- | --- | --- | --- | --- |
| – | – | – | – | Cc1c(COc2cc(OCc3cncc(C#N)c3)c(CN(CCCN(C)C)CCS(=O)(=O)O)cc2Cl)cccc1-c1ccc2c(c1)OCCO2 | – | – | – | – | – | – | – | – | – | – | – | – | – | – | IC50 [1]: 23.5 nM |
| 1.78 | 1.5 | 3.78 | 1090 | COc1cc(OCc2cccc(-c3ccccc3)c2C)cc(OC)c1CNCCO[C@H]1O[C@H](CO)[C@@H](O)[C@H](O)[C@@H]1O | Non-Toxic | 18.4 | 6.72 | Non-Toxic | Non-Toxic | 41.1 | Non-Toxic | 7.19 | 41.1 | Non-Toxic | 67.2 | 8.67 | 41.1 | 60.8 | half-life [4]: 5.83 h; Cmax [7]: 928 ng/mL; Tmax [8]: 0.58 h; AUC(0-t) at 24 h [9]: 2920 ng·h/mL; Tmax [11]: 0.58 h; AUC(0-inf) [21]: 2990 ng·h/mL; Cmax [22]: 1630 ng/mL; MRT inf [25]: 1.9 h; AUC ([27]; mouse, 24 h): 1110 ng·h/mL |
| 2.09 | 3.58 | 6.36 | 2160 | COc1nc(OCc2cccc(-c3ccccc3)c2C)ccc1CNCCO[C@@H]1O[C@H](CO)[C@@H](O)[C@H](O)[C@H]1NC(C)=O | Non-Toxic | 20.53 | 2.57 | Non-Toxic | Non-Toxic | 41.1 | Non-Toxic | 5.06 | 41.1 | Non-Toxic | 77.3 | 11.47 | 41.1 | 49.4 | Activity [29]: Active; half-life [30]: 7.02 h; Activity [31]: Active; Tmax [32]: 0.5 h; clearance [33]: 38.6 mL/min/kg; IC50 [34]: 29.2 nM; MRT inf [35]: 10.2 h; Vd [36]: 6.88 L/kg; Cmax [37]: 31.7 ng/mL; Activity [38]: Non-Toxic; Activity [39]: Active; Activity [40]: Active; Activity [41]: Active; inhibition [42]: Active; Activity [43]: Active; AUC(0-inf) ([27]; CD-1, mouse): 2230 ng·h/mL; Activity [44]: Active; AUC(0-t) at 24 h [45]: 337 ng·h/mL |
